From US20240294489A1 (Captor Therapeutics S.A., priority 2020, published 2024)
Structures can show the parent of a compound that is named as a salt. Each block holds one molecule with its values, some of them ahead of it.

Tests used:
Format in all cases: cell-based
KG-1 cells = test: Cell viability CTG assay, KG-1; details: Homo sapiens; KG-1, 72 h, 0.001-50 μM; read-out: KG-1 Geomean absolute IC50 by molecule, 72 H
Description: (§1) The effect of various compounds of the invention and various reference compounds on cell viability in various cell lines was investigated, using the Cell Viability—CTG Assay Protocol below. Hep3B, Kelly, H929, KG-1 and SNU-398 cells were maintained in respective cell medium (see Table 8, below). The cells were seeded on the 96-well or 384-white plates, and the compounds to be tested were added at the desired concentration range. Compounds are diluted in DMSO, and the DMSO concentration is kept constant at 0.25% v/v across the assay plate. After 72 h incubation (37° C., 5% CO2), CellTiter-Glo® Reagent (Promega/G7570) was added to the wells. Plates are shaken for 4 minutes and incubated for 8 minutes in the dark prior to reading luminescence (LU) by using the CLARIOstar Multimode Plate Reader. The signal is proportional to the amount of ATP, which is directly proportional to the number of cells present in the culture.
(§2) Luminescence (RLU) values were normalized to DMSO control. Dose response is assessed by non-linear regression and IC50 calculation with the average of technical duplicate of percentage inhibition. IC50 values are reported as absolute IC50 values, being the concentration of test compound at the intersection of the concentration-response curves with T/C=50%. For calculation of mean IC50 values the geometric mean is used.

Kelly cells = test: Cell viability CTG assay, Kelly; details: 72 h, 0.001-50 μM, read-out: Kelly Geomean absolute IC50 by molecule, 72 H
Description: as §1, §2

Hep3B cells = test: Cell viability CTG assay, Hep3B; details: Homo sapiens, 72 h, 0.001-50 μM, read-out: Hep3B Geomean absolute IC50 by molecule, 72 H
Description: as §1, §2

Ikaros (IKZF1) = biological target: T1, Ikaros (IKZF1) (Homo sapiens, UniProt Q13422+Q96SW2); test: Ikaros degradation assay, H929 cell line; details: H929 cells, 24 h; for inhibition at 20 µM / inhibition at 10 µM: NCI-H929, read-out: % of IKZF1 protein reduction; for % of IKZF1 protein reduction: numeric values
T1 construct: Ikaros degradation in the H929 cell line was investigated; endogenous in cells; host or cells: H929
T1 sequence (Q13422 whole entry): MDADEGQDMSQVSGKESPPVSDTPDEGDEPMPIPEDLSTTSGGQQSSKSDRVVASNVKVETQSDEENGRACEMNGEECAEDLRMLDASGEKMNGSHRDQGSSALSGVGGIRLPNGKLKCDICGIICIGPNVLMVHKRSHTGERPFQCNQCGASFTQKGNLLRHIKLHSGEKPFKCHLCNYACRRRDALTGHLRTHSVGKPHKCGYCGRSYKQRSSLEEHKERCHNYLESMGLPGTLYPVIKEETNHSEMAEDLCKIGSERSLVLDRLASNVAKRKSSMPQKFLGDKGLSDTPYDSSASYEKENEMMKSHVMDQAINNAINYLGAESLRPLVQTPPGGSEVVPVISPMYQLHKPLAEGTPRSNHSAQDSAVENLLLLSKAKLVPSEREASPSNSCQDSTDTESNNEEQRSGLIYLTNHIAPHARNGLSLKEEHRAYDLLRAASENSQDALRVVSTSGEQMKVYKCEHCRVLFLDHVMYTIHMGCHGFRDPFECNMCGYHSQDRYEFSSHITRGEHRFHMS
T1 sequence (Q96SW2 whole entry): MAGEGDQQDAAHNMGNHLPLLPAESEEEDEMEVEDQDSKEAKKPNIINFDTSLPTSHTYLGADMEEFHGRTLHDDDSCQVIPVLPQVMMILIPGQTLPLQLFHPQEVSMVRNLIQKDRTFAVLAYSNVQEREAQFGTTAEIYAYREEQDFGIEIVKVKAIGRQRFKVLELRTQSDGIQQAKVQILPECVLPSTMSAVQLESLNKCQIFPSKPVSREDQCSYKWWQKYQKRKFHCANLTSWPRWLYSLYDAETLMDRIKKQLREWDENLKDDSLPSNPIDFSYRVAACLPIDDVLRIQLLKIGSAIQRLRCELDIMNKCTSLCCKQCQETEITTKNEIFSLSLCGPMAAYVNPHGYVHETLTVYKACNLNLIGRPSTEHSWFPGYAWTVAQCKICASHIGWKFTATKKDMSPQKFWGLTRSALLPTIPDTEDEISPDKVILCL
T1 sequence (Q16531 whole entry partner): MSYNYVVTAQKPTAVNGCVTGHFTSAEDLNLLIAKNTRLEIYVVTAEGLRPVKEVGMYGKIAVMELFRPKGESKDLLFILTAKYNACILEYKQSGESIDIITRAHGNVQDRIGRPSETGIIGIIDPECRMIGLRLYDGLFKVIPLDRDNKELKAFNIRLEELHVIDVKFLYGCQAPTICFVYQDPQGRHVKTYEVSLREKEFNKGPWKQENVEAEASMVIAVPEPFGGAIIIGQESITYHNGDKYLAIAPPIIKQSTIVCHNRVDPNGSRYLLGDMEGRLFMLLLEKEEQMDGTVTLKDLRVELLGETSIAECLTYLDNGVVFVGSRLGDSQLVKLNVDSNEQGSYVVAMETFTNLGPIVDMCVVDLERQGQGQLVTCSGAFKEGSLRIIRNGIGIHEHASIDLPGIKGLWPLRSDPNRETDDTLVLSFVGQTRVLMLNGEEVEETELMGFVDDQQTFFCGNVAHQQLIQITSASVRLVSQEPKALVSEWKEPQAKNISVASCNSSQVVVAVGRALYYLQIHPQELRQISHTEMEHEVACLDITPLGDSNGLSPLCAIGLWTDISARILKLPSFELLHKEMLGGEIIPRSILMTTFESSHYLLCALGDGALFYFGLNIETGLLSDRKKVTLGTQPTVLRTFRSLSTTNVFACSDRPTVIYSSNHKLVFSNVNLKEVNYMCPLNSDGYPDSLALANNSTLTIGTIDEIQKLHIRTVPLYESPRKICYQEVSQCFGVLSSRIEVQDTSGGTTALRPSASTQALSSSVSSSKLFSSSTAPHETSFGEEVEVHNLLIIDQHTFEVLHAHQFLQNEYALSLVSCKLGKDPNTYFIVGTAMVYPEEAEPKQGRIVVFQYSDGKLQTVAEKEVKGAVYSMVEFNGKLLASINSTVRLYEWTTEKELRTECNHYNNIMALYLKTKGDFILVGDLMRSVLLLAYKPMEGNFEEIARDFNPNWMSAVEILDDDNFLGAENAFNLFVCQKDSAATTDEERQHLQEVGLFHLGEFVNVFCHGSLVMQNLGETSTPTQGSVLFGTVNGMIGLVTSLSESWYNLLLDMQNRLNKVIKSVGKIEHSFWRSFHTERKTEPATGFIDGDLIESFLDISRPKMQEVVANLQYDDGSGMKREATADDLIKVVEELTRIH
Description: Cells were seeded on 6- or 12-well plates, and the compounds to be tested were added at the desired concentration range. […] After 24 h incubation (37° C., 5% CO2), cells were harvested, washed and cell lysates were prepared using RIPA lysis buffer. The amount of protein was determined via BCA assay, and the appropriate quantity was then loaded on the precast gel for the protein separation. After primary and secondary Ab staining, the membranes were washed and signals developed. The densitometry analysis was implemented to obtain the numeric values used later in the protein level evaluation process.

H929 cells = test: Cell viability CTG assay, H929; design: key to Geomean absolute IC50 by molecule, 72 H: Inactive represents IC50 > 50 μM; C represents 50 μM ≥ IC50 > 5 μM; details: H929, 72 h, 0.001-50 μM; for IC50: Homo sapiens, NCI-H929, numeric values, read-out: Geomean absolute IC50 by molecule, 72 H
Description: as §1, §2

GSPT1 = biological target: T2, GSPT1 (Homo sapiens, UniProt P15170+Q96SW2); test: GSPT1 degradation assay, Hep3B cell line; details: HEP3B cells, 24 h, read-out: % of GSPT1 protein reduction
T2 construct: GSPT1 degradation in the Hep3B cell line was investigated; endogenous in cells; host or cells: Hep3B
T2 sequence (P15170 whole entry): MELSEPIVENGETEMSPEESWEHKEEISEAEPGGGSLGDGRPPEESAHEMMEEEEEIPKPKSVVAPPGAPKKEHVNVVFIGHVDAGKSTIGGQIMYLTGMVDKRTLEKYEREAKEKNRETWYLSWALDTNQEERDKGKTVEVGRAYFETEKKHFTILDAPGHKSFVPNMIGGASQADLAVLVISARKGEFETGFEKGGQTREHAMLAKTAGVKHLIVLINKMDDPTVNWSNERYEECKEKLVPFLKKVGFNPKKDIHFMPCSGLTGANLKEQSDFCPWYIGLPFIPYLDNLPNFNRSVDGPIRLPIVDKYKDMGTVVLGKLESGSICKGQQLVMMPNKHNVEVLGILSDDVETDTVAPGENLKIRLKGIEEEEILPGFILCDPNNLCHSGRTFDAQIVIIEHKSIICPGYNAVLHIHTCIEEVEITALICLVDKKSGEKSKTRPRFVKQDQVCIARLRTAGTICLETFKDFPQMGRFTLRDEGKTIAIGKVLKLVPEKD
T2 sequence (Q96SW2 whole entry): as the sequence (Q96SW2 whole entry) above
T2 sequence (Q16531 whole entry partner): as the sequence (Q16531 whole entry partner) above
Description: Hep3B cells were maintained in EMEM medium, supplemented with penicillin/streptomycin and 10% Fetal Bovine Serum (FBS). Cells were seeded on 6- or 12-well plates, and the compounds to be tested were added at the desired concentration range. Final DMSO concentration was 0.25%. After 24 h incubation (37° C., 5% CO2), cells were harvested, washed and cell lysates were prepared using RIPA lysis buffer. The amount of protein was determined via BCA assay, and the appropriate quantity was then loaded on the precast gel for the protein separation. After primary and secondary Ab staining, the membranes were washed and signals developed. The densitometry analysis was implemented to obtain the numeric values used later in the protein level evaluation process. Densitometry values were normalized to the loading control and calculated as [%] of the DMSO control.

Structure (SMILES): O=C(CCc1ccc(Cl)cc1)NCc1ccc2c(c1)CN(C1CCC(=O)NC1=O)C2=O (stereo not drawn) [Compound 42]
IC50 (KG-1 cells): ≤ 0.1 µM | IC50 (Kelly cells): ≤ 0.1 µM | IC50 (Hep3B cells): ≤ 0.1 µM

Structure (SMILES): O=C(CCc1c[nH]c2ccccc12)NCc1ccc2c(c1)CN(C1CCC(=O)NC1=O)C2=O (stereo not drawn) [Compound 36]
IC50 (KG-1 cells): ≤ 0.1 µM | IC50 (Kelly cells): ≤ 0.1 µM | IC50 (Hep3B cells): ≤ 0.1 µM

Structure (SMILES): N=C(N)NCCCC(N)C(=O)NCc1ccc2c(c1)CN(C1CCC(=O)NC1=O)C2=O (stereo not drawn) [Compound 38, 2-amino-N-((2-(2,6-dioxopiperidin-3-yl)-1-oxoisoindolin-5-yl)methyl)-5-guanidinopentanamide]
IC50 (Hep3B cells): 0.1 to 1 µM | Geomean absolute IC50 by molecule, 72 H (H929 cells): Inactive

Structure (SMILES): Cc1ccc(NC(=O)NCc2ccc3c(c2)CN(C2CCC(=O)NC2=O)C3=O)cc1Cl (stereo not drawn) [CC-885, reference compound]
% of IKZF1 protein reduction (Ikaros (IKZF1); 10 uM): >99% | % of IKZF1 protein reduction (Ikaros (IKZF1); 20 uM): >99%

Structure (SMILES): CC(=O)OCc1ccccc1C(=O)NCc1ccc2c(c1)CN(C1CCC(=O)NC1=O)C2=O (stereo not drawn) [Compound 19, [2-({[2-(2,6-dioxopiperidin-3-yl)-1-oxo-2,3-dihydro-1H-isoindol-5-yl]methyl}carbamoyl)phenyl]methyl acetate]
inhibition at 10 µM (GSPT1): 50 to 79%

Structure (SMILES): O=C1CC[C@@H](N2Cc3c(OCc4ccc(CN5CCOCC5)cc4)cccc3C2=O)C(=O)N1 [CC-220, reference compound]
IC50 (H929 cells): 0.004 µM

Structure (SMILES): O=C1CCC(N2Cc3cc(CNC(=O)c4ccccc4CO)ccc3C2=O)C(=O)N1 (stereo not drawn) [Compound 20, N-{[2-(2,6-dioxopiperidin-3-yl)-1-oxo-2,3-dihydro-1H-isoindol-5-yl]methyl}-2-(hydroxymethyl)benzamide]
inhibition at 10 µM (GSPT1): 50 to 79%

Structure (SMILES): O=C1CCC(N2Cc3cc(CNC(=O)[C@@H]4CCCN4)ccc3C2=O)C(=O)N1 (stereo partly drawn) [Compound 43, (2S)—N-((2-(2,6-dioxopiperidin-3-yl)-1-oxoisoindolin-5-yl)methyl)pyrrolidine-2-carboxamide hydrochloride]
inhibition at 20 µM (Ikaros (IKZF1); 20 uM): 0 to 24% | IC50 (KG-1 cells): 1 to 5 µM | IC50 (Hep3B cells): 0.1 to 1 µM | Geomean absolute IC50 by molecule, 72 H (H929 cells): Inactive

Structure (SMILES): Cc1nc2cccc(N)c2c(=O)n1C1CCC(=O)NC1=O (stereo not drawn) [CC-122, reference compound]
IC50 (H929 cells): 0.072 µM

Structure (SMILES): CC(C)(C)OC(=O)N[C@@H](Cc1cnc[nH]1)C(=O)NCc1ccc2c(c1)CN([C@H]1CCC(=O)NC1=O)C2=O [Compound 30, tert-butyl ((S)-1-(((2-((S)-2,6-dioxopiperidin-3-yl)-1-oxoisoindolin-5-yl)methyl)amino)-3-(1H-imidazol-4-yl)-1-oxopropan-2-yl)carbamate]
inhibition at 20 µM (Ikaros (IKZF1); 20 uM): 0 to 24%

Structure (SMILES): CC(C)(C)OC(=O)NCC(=O)NCc1ccc2c(c1)CN(C1CCC(=O)NC1=O)C2=O (stereo not drawn) [Compound 26, tert-butyl (2-(((2-(2,6-dioxopiperidin-3-yl)-1-oxoisoindolin-5-yl)methyl)amino)-2-oxoethyl)carbamate]
inhibition at 20 µM (Ikaros (IKZF1); 20 uM): 0 to 24% | IC50 (Hep3B cells): ≤ 0.1 µM | Geomean absolute IC50 by molecule, 72 H (H929 cells): Inactive

Structure (SMILES): CC(C)(C)OC(=O)NC(C)(C)C(=O)NCc1ccc2c(c1)CN(C1CCC(=O)NC1=O)C2=O (stereo not drawn) [Compound 33, tert-butyl (1-(((2-(2,6-dioxopiperidin-3-yl)-1-oxoisoindolin-5-yl)methyl)amino)-2-methyl-1-oxopropan-2-yl)carbamate]
inhibition at 20 µM (Ikaros (IKZF1); 20 uM): 0 to 24%

More lines, now with the values ahead:

inhibition at 20 µM (Ikaros (IKZF1); 20 uM): 0 to 24%
Structure (SMILES): C[C@@H](NC(=O)OC(C)(C)C)c1ccc2c(c1)CN(C1CCC(=O)NC1=O)C2=O (stereo partly drawn) [Compound 11, tert-butyl N-[(1R)-1-[2-(2,6-dioxopiperidin-3-yl)-1-oxo-2,3-dihydro-1H-isoindol-5-yl]ethyl]carbamate]

IC50 (Hep3B cells): ≤ 0.1 µM | Geomean absolute IC50 by molecule, 72 H (H929 cells): Inactive
Structure (SMILES): Cc1c(CN)ccc2c1CN(C1CCC(=O)NC1=O)C2=O (stereo not drawn) [Compound 6, 3-[5-(aminomethyl)-4-methyl-1-oxo-2,3-dihydro-1H-isoindol-2-yl]piperidine-2,6-dione]

inhibition at 20 µM (Ikaros (IKZF1); 20 uM): 0 to 24%
Structure (SMILES): C[C@H](NC(=O)OC(C)(C)C)c1ccc2c(c1)CN(C1CCC(=O)NC1=O)C2=O (stereo partly drawn) [Compound 9, tert-butyl N-[(1S)-1-[2-(2,6-dioxopiperidin-3-yl)-1-oxo-2,3-dihydro-1H-isoindol-5-yl]ethyl]carbamate]

inhibition at 10 µM (Ikaros (IKZF1); 10 uM): 0 to 24%
Structure (SMILES): Cc1cc2c(cc1CN)CN(C1CCC(=O)NC1=O)C2=O (stereo not drawn) [Compound 4, 3-[5-(aminomethyl)-6-methyl-1-oxo-2,3-dihydro-1H-isoindol-2-yl]piperidine-2,6-dione]

inhibition at 10 µM (GSPT1): 80 to 100% | inhibition at 10 µM (Ikaros (IKZF1); 10 uM): 0 to 24% | IC50 (Hep3B cells): 0.1 to 1 µM | Geomean absolute IC50 by molecule, 72 H (H929 cells): Inactive
Structure (SMILES): NCc1ccc2c(c1F)CN(C1CCC(=O)NC1=O)C2=O (stereo not drawn) [Compound 5, 3-[5-(aminomethyl)-4-fluoro-1-oxo-2,3-dihydro-1H-isoindol-2-yl]piperidine-2,6-dione]

inhibition at 10 µM (GSPT1): 50 to 79% | inhibition at 10 µM (Ikaros (IKZF1); 10 uM): 0 to 24%
Structure (SMILES): NCc1cc(F)c2c(c1)CN(C1CCC(=O)NC1=O)C2=O (stereo not drawn) [Compound 7, 3-[5-(aminomethyl)-7-fluoro-1-oxo-2,3-dihydro-1H-isoindol-2-yl]piperidine-2,6-dione]

inhibition at 10 µM (GSPT1): 80 to 100% | inhibition at 10 µM (Ikaros (IKZF1); 10 uM): 0 to 24%
Structure (SMILES): O=C1CCC(N2Cc3cc(C(=O)O)c(F)cc3C2=O)C(=O)N1 (stereo not drawn) [Compound 54, 2-(2,6-dioxopiperidin-3-yl)-6-fluoro-1-oxo-2,3-dihydro-1H-isoindole-5-carboxylic acid]

inhibition at 1 µM (GSPT1; 1 uM): 50 to 79% | inhibition at 10 µM (GSPT1): 80 to 100%
Structure (SMILES): O=C1CCC(N2Cc3cc(C(=O)O)ccc3C2=O)C(=O)N1 (stereo not drawn) [Compound 53]

inhibition at 10 µM (Ikaros (IKZF1); 10 uM): 0 to 24%
Structure (SMILES): O=C1CCC(N2Cc3cc(CO)ccc3C2=O)C(=O)N1 (stereo not drawn) [Compound 17, 3-(5-(hydroxymethyl)-1-oxoisoindolin-2-yl)piperidine-2,6-dione]

inhibition at 10 µM (Ikaros (IKZF1); 10 uM): 0 to 24%
Structure (SMILES): CN(C)Cc1ccc2c(c1)CN(C1CCC(=O)NC1=O)C2=O (stereo not drawn) [Compound 16, 3-(5-((dimethylamino)methyl)-1-oxoisoindolin-2-yl)piperidine-2,6-dione]

inhibition at 10 µM (Ikaros (IKZF1); 10 uM): 0 to 24%
Structure (SMILES): C[C@@H](N)c1ccc2c(c1)CN(C1CCC(=O)NC1=O)C2=O (stereo partly drawn) [Compound 10, 3-{5-[(1R)-1-aminoethyl]-1-oxo-2,3-dihydro-1H-isoindol-2-yl}piperidine-2,6-dione]

inhibition at 20 µM (Ikaros (IKZF1); 20 uM): 0 to 24%
Structure (SMILES): CC(C)(N)C(=O)NCc1ccc2c(c1)CN(C1CCC(=O)NC1=O)C2=O (stereo not drawn) [Compound 34, 2-amino-N-((2-(2,6-dioxopiperidin-3-yl)-1-oxoisoindolin-5-yl)methyl)-2-methylpropanamide]

inhibition at 10 µM (GSPT1): 80 to 100% | inhibition at 10 µM (Ikaros (IKZF1); 10 uM): 0 to 24% | IC50 (Hep3B cells): ≤ 0.1 µM | Geomean absolute IC50 by molecule, 72 H (H929 cells): Inactive
Structure (SMILES): CC1c2cc(CN)ccc2C(=O)N1C1CCC(=O)NC1=O (stereo not drawn) [Compound 52, 3-[5-(aminomethyl)-3-methyl-1-oxo-2,3-dihydro-1H-isoindol-2-yl]piperidine-2,6-dione]

inhibition at 20 µM (Ikaros (IKZF1); 20 uM): 0 to 24%
Structure (SMILES): CC(C)C(N)C(=O)NCc1ccc2c(c1)CN(C1CCC(=O)NC1=O)C2=O (stereo not drawn) [Compound 32, 2-amino-N-((2-(2,6-dioxopiperidin-3-yl)-1-oxoisoindolin-5-yl)methyl)-3-methylbutanamide]

inhibition at 20 µM (Ikaros (IKZF1); 20 uM): 0 to 24%
Structure (SMILES): C[C@H](N)c1ccc2c(c1)CN(C1CCC(=O)NC1=O)C2=O (stereo partly drawn) [Compound 8, 3-{5-[(1S)-1-aminoethyl]-1-oxo-2,3-dihydro-1H-isoindol-2-yl}piperidine-2,6-dione]
